The values that follow come from article PMC11061149, “Protein mimetic 2D FAST rescues alpha synuclein aggregation mediated early and post disease Parkinson’s phenotypes” (Nature Communications, 2024).

The structures appear in SMILES notation. Values joined by “and” are separate entries in the source; they are usually repeats but may differ in a detail not shown here. Equal entries are not always repeated.

The subject of experiment [1] is HEK cells stably expressing αS-A53T-YFP. Briefly: HEK cells treated with 5th cycle PMCA samples (ProteoStat, confocal). The format is cell-based, human. As to the method: To further validate that NS132 generates fiber incompetent structures from the fibers-catalyzed aggregation, we utilized HEK cells that stably express αS-A53T-YFP[24],[51]–[54]. The solutions of αS aggregation in the absence and presence of NS132 from the 5th cycle of PMCA (2 μM in monomeric αS, ±NS132) were introduced to the HEK cells in the presence of Lipofectamine 3000 for 24 h. In contrast to the control (no fibers) (Fig. 3i, control), we observed a significant number of inclusions of αS-A53T-YFP protein in the presence of αS fibers (Fig. 3i, αS, white arrows). […] In contrast, in the presence of the PMCA assay sample from the 5th cycle ( + NS132), there was a significant reduction in the number of αS-A53T-YFP inclusions (Fig. 3i, +NS132). The ProteoStat intensity of inclusions in HEK cells treated with the PMCA sample from cycle five was ~2–3 fold higher than the control condition (no fibers) (Fig. 3j, black). […]
This assay was performed based on a previous protocol with slight modifications. […] The resulting cell pellets were then homogenized, transferred into an autoclaved 1.7 mL microcentrifuge tube, and counted to normalize the data. […] The cell solution was homogenized and equally aliquoted into the desired number of wells in a Costar 96-well flat black plate and fluorescence was measured (λex = 550 nm, λem = 600 nm) on an Infinite M200 Pro Plate Reader. […]

The test system of a further experiment is UA196 worms. Briefly: Motility assay of UA196 worms. It is filed as in vivo, C. elegans. As to the method:
Briefly, all worm strains were bleached at the same time and the eggs were incubated on PLATE 1. On day two, the worms were divided into two batches. […] The liquid media for PLATE 4 A/B was prepared with 67.28% (v/v) of M9 buffer, 75 μM FUDR, 0.1% of 1 M magnesium sulfate (v/v), 0.1% of 1 M calcium chloride (v/v), 2.5% of 1 M potassium phosphate solution (pH 6, v/v), and 30% (v/v) of OP50 (0.5 OD600nm). […] To test the effect of each ligand on disease worm strains (NL5901 or UA196), there were four conditions were used in PLATE 4 A/B: […] The assay was started on day four using the WMicroTracker ARENA plate reader (Phylumtech, Santa Fe, Argentina) at 20 °C for 1 h per day over a 14-day period at intervals of 24 h. The WMicroTracker ARENA plate reader uses a large array of infrared light microbeams in each well of the plate to detect the interference caused by the movement of the worms. The output by the ARENA plate reader is an average of the overall movement of all worms present in each well, which is denoted as the motility of the worms in each well. […] After collecting the data each day, the PLATE 4 A/B was again placed on the shaker (100 rpm) at 20 °C in the incubator. The PLATE 4 A/B was on the on the shaker (100 rpm) at 20 °C in the incubator the whole duration of the experiment except only when the reading was collected on the WMicroTracker ARENA plate reader for 1 h.

Another experiment concerns the target T1, αS fibers (Homo sapiens, UniProt P37840).
T1 construct: made in house; host or cells: E. coli BL21(DE3)
Briefly: Transmission electron microscopy (TEM) of αS solutions. The format is biochemical. On the procedure:
Transmission Electron Microscopy was used to visualize protein assemblies after aggregation experiments as previously described. Briefly, aliquots (5 μL) of αS solutions (with or without ligands) were applied on glow-discharged carbon-coated 300-mesh copper grids for 2 min and dried using Kimwipes (Kimberly-Clark, Irving, TX). The copper grids were negatively stained for 1 min with uranyl acetate (0.75%, w/v). The micrographs were taken on an FEI Tecnai G2 Biotwin TEM at 80 kV accelerating voltages.

`Cc1ccc(NC(=O)c2ccc(NC(=O)c3ccc([N+](=O)[O-])c(NCCc4c[nH]c5ccccc45)n3)c(NCC3CCCCC3)n2)c(OCC(=O)O)n1` [NS132]: in experiment [1] (HEK cells + fifth cycle PMCA sample (2 μM αS in monomer) with NS132), the “ProteoStat dye intensity (raw), individual experiments” value is 1001 and 1176 and 997 and 1009 and 1031 and 978 and 1091 and 1123 and 1010 and 1092 and 1179. For the same molecule, in experiment [1] (PMCA sample from cycle five in the presence of NS132), the “ProteoStat intensity of inclusions, in words” value is reported as “significantly lower”. Also, in the experiment with UA196 worms (50 µM ligand (day two and day four), during the aging process), the “motility of UA196 worms, in words” value is “noticeable rescue”. Moreover, the “Motility (activity counts)” value with UA196 worms (UA196+NS132, Day 4, per trial) is 206 and 197 and 180 and 188; in the experiment on UA196 worms (UA196+NS132, Day 5, per trial), 205 and 178 and 179 and 183; with UA196 worms (UA196+NS132, Day 6, per trial), 161 and 191 and 157 and 201; in the experiment with UA196 worms (UA196+NS132, Day 7, per trial), 139 and 152 and 174 and 165; in the experiment with UA196 worms (UA196+NS132, Day 8, per trial), 150 and 125 and 135 and 134; in the experiment with UA196 worms (UA196+NS132, Day 9, per trial), 143 and 94 and 105 and 78. Moreover, the “Motility (activity counts)” value in the experiment with UA196 worms (UA196+NS132, Day 10, per trial) was 97 and 68 and 112; with UA196 worms (UA196+NS132, Day 13, per trial), 24 and 17 and 22 and 19; in the experiment with UA196 worms (UA196+NS132, Day 14, per trial) it was 19 and 14 and 23. The “αS fibers seen in TEM images, in words” value at αS fibers (100 µM αS aggregated for four days with ligand) was “did not observe αS fibers”; on αS fibers (fibers-catalyzed aggregation of αS, 60 h, equimolar NS132), “significantly fewer αS fibers”.
